PMC12090182, “Repurposing of the RIPK1-Selective Benzo[1,4]oxazepin-4-one Scaffold for the Development of a Type III LIMK1/2 Inhibitor” (ACS Chemical Biology, 2025)

How the values were obtained:
Test in all cases: biochemical
Type in all cases: binding
[1] = target: 468 kinases including some pathogenic mutants (Homo sapiens, UniProt O00444); conditions: PLK4 (Entrez PLK4), 100 nM; read-out: Percent Control
[2] = target: 468 kinases including some pathogenic mutants (Homo sapiens, UniProt O43283); conditions: LZK (Entrez MAP3K13), 100 nM; read-out: Percent Control
[3] = target: 468 kinases including some pathogenic mutants (Homo sapiens, UniProt O43353); conditions: RIPK2 (Entrez RIPK2), 100 nM; read-out: Percent Control
[4] = target: 468 kinases including some pathogenic mutants (Homo sapiens, UniProt O75716); conditions: STK16 (Entrez STK16), 1000 nM; read-out: Percent Control
Sequence of 468 kinases including some pathogenic mutants (Homo sapiens, UniProt O75716) (O75716 whole entry, stated change not applied): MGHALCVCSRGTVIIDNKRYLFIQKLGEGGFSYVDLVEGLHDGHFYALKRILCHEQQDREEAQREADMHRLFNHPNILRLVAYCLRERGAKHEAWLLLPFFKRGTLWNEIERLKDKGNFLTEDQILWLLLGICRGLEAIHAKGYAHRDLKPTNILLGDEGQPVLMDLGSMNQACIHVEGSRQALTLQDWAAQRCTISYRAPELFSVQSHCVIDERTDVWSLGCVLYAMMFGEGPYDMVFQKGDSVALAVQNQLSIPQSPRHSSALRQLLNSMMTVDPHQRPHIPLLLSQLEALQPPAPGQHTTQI

[5] = target: 468 kinases including some pathogenic mutants (Homo sapiens, UniProt P00519, F317L); conditions: read-out: Percent Control
[6] = target: 468 kinases including some pathogenic mutants (Homo sapiens, UniProt P00519, T315I); conditions: read-out: Percent Control
[7] = target: 468 kinases including some pathogenic mutants (Homo sapiens, UniProt P06213); conditions: INSR (Entrez INSR), 100 nM; read-out: Percent Control
[8] = target: 468 kinases including some pathogenic mutants (Homo sapiens, UniProt P08581); conditions: MET (Entrez MET), 100 nM; read-out: Percent Control
[9] = target: 468 kinases including some pathogenic mutants (Homo sapiens, UniProt P09619); conditions: PDGFRB (Entrez PDGFRB), 100 nM; read-out: Percent Control
Sequence of 468 kinases including some pathogenic mutants (Homo sapiens, UniProt P09619) (P09619 33-1106, stated change not applied): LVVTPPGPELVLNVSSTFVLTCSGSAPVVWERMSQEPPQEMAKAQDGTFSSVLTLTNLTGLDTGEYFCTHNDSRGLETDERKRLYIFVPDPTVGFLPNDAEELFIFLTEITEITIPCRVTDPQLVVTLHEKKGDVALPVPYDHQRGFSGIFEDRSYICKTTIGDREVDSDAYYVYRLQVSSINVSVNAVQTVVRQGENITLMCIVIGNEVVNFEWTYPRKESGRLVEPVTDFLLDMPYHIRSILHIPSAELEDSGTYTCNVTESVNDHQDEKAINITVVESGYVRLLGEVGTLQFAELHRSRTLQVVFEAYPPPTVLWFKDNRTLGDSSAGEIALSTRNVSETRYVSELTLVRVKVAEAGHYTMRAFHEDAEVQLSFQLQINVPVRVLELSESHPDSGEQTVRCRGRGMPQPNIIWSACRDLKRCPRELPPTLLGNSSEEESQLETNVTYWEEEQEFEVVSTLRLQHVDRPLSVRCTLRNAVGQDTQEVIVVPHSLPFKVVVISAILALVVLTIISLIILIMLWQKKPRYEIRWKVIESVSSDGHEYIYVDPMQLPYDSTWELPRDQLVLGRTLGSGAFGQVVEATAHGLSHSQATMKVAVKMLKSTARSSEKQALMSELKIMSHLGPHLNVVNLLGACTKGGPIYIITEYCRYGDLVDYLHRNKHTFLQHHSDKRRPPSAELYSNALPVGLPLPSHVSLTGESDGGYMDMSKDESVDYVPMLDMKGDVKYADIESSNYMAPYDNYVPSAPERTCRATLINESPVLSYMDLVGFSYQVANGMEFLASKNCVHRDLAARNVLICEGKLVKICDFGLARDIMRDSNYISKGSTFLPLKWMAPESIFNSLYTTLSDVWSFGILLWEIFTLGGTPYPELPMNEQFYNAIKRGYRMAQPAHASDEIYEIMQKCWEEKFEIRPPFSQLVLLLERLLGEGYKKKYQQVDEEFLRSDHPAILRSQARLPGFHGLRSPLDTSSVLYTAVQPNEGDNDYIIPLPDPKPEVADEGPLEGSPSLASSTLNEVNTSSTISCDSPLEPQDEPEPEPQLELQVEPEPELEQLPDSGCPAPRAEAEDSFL

[10] = target: 468 kinases including some pathogenic mutants (Homo sapiens, UniProt P10721, D816H); conditions: read-out: Percent Control
[11] = target: 468 kinases including some pathogenic mutants (Homo sapiens, UniProt P10721, T670I/V559D); conditions: read-out: Percent Control
[12] = target: 468 kinases including some pathogenic mutants (Homo sapiens, UniProt P15056); conditions: BRAF (Entrez BRAF), 100 nM; read-out: Percent Control
[13] = target: 468 kinases including some pathogenic mutants (Homo sapiens, UniProt P15735); conditions: PHKG2 (Entrez PHKG2), 100 nM; read-out: Percent Control
[14] = target: 468 kinases including some pathogenic mutants (Homo sapiens, UniProt P24941); conditions: CDK2 (Entrez CDK2), 100 nM; read-out: Percent Control
[15] = target: 468 kinases including some pathogenic mutants (Homo sapiens, UniProt P35590); conditions: TIE1 (Entrez TIE1), 100 nM; read-out: Percent Control
[16] = target: 468 kinases including some pathogenic mutants (Homo sapiens, UniProt P36888, D835Y); conditions: read-out: Percent Control
[17] = target: 468 kinases including some pathogenic mutants (Homo sapiens, UniProt P42336, I800L); conditions: read-out: Percent Control
[18] = target: 468 kinases including some pathogenic mutants (Homo sapiens, UniProt P42336, Q546K); conditions: read-out: Percent Control
[19] = target: 468 kinases including some pathogenic mutants (Homo sapiens, UniProt P43405); conditions: SYK (Entrez SYK), 100 nM; read-out: Percent Control
[20] = target: 468 kinases including some pathogenic mutants (Homo sapiens, UniProt P52333); conditions: JAK3(JH1domain-catalytic) (Entrez JAK3), 100 nM; read-out: Percent Control
[21] = target: 468 kinases including some pathogenic mutants (Homo sapiens, UniProt Q06418); conditions: TYRO3 (Entrez TYRO3), 100 nM; read-out: Percent Control
Sequence of 468 kinases including some pathogenic mutants (Homo sapiens, UniProt Q06418) (Q06418 41-890, change not shown): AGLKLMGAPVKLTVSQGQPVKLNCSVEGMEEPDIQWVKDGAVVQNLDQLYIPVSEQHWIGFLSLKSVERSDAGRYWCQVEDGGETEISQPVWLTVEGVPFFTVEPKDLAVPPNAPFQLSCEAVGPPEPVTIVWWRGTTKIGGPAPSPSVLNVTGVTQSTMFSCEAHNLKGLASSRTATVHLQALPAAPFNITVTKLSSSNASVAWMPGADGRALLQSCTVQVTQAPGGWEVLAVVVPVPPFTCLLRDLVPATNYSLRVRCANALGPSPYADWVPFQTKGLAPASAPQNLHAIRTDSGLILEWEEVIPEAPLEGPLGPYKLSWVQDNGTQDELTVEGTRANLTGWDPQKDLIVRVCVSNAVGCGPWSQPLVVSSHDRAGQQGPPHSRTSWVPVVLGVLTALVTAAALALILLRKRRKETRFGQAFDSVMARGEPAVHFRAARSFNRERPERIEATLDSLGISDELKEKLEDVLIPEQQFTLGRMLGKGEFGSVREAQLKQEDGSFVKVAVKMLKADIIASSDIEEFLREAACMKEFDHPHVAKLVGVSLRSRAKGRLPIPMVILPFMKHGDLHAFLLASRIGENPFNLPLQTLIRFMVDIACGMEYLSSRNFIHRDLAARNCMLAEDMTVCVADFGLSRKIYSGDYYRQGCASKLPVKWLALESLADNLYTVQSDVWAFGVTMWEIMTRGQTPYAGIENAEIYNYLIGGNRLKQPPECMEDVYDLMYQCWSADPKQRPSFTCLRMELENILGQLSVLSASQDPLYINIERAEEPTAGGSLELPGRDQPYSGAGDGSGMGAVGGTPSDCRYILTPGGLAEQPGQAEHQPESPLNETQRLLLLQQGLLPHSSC

[22] = target: 468 kinases including some pathogenic mutants (Homo sapiens, UniProt Q13164); conditions: ERK5 (Entrez MAPK7), 100 nM; read-out: Percent Control
[23] = target: 468 kinases including some pathogenic mutants (Homo sapiens, UniProt Q14289); conditions: PYK2 (Entrez PTK2B), 100 nM; read-out: Percent Control
Sequence of 468 kinases including some pathogenic mutants (Homo sapiens, UniProt Q14289) (Q14289 whole entry, change not shown): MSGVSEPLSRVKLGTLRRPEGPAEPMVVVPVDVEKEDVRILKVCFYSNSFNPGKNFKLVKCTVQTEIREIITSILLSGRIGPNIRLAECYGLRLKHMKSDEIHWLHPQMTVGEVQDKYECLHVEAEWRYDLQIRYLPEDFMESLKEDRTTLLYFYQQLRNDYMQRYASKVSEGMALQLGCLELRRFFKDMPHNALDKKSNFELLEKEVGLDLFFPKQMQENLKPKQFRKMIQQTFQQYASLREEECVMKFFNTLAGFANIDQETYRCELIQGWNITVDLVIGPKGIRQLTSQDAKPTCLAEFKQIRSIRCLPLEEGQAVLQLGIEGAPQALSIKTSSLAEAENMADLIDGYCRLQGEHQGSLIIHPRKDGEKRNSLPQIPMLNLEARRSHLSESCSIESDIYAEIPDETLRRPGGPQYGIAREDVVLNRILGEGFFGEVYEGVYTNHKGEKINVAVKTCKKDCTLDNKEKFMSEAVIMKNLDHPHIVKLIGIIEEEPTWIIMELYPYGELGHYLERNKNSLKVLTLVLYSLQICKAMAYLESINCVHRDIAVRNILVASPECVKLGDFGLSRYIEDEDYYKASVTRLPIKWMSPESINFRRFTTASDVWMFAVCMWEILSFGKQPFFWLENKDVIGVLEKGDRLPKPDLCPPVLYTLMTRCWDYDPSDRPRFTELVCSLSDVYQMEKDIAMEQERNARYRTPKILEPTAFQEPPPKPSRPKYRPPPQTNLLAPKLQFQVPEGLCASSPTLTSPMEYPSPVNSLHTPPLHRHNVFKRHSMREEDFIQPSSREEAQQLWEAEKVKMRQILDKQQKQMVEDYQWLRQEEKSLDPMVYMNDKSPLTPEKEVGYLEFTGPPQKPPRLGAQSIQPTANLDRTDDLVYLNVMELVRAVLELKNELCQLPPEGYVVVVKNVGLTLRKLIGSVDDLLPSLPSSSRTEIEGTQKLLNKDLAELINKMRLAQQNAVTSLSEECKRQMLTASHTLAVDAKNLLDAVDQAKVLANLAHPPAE

[24] = target: 468 kinases including some pathogenic mutants (Homo sapiens, UniProt Q8NEB9); conditions: VPS34 (Entrez PIK3C3), 1000 nM; read-out: Percent Control
[25] = target: 468 kinases including some pathogenic mutants (Homo sapiens, UniProt Q9H2K8); conditions: TAOK3 (Entrez TAOK3), 100 nM; read-out: Percent Control
[26] = target: 468 kinases including some pathogenic mutants (Homo sapiens, UniProt Q9H4B4); conditions: PLK3 (Entrez PLK3), 1000 nM; read-out: Percent Control
[27] = target: 468 kinases including some pathogenic mutants (Homo sapiens, UniProt Q9NRM7); conditions: LATS2 (Entrez LATS2), 100 nM; read-out: Percent Control
[28] = target: 468 kinases including some pathogenic mutants (Homo sapiens, UniProt Q9NYL2); conditions: ZAK (Entrez ZAK), 1000 nM; read-out: Percent Control
[29] = target: 468 kinases including some pathogenic mutants (Homo sapiens, UniProt Q9UHD2); conditions: TBK1 (Entrez TBK1), 100 nM; read-out: Percent Control
Sequence of 468 kinases including some pathogenic mutants (Homo sapiens, UniProt Q9UHD2) (Q9UHD2 whole entry, change not shown): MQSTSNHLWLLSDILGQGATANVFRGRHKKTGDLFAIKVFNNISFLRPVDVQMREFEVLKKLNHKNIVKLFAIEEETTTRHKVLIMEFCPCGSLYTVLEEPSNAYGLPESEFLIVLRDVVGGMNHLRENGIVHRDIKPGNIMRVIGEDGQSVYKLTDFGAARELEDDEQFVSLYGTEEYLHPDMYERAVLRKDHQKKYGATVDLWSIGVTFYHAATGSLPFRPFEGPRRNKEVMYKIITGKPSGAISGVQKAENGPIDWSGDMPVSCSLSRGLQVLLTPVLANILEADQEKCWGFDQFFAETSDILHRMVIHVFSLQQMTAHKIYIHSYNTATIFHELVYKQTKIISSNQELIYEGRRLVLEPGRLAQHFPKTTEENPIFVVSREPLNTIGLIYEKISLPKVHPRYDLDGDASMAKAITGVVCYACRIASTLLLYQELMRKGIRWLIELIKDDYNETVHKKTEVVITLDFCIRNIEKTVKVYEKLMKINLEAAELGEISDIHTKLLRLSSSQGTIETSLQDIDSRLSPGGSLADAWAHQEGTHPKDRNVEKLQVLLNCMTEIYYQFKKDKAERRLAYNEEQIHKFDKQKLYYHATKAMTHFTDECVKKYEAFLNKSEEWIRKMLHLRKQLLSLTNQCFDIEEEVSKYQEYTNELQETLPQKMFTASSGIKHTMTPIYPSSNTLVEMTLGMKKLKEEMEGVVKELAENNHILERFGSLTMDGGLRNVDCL

[30] = target: 468 kinases including some pathogenic mutants (Homo sapiens, UniProt Q9UPE1); conditions: SRPK3 (Entrez SRPK3), 1000 nM; read-out: Percent Control

Sequence of 468 kinases including some pathogenic mutants (Homo sapiens, UniProt O00444) (O00444 whole entry, change not shown): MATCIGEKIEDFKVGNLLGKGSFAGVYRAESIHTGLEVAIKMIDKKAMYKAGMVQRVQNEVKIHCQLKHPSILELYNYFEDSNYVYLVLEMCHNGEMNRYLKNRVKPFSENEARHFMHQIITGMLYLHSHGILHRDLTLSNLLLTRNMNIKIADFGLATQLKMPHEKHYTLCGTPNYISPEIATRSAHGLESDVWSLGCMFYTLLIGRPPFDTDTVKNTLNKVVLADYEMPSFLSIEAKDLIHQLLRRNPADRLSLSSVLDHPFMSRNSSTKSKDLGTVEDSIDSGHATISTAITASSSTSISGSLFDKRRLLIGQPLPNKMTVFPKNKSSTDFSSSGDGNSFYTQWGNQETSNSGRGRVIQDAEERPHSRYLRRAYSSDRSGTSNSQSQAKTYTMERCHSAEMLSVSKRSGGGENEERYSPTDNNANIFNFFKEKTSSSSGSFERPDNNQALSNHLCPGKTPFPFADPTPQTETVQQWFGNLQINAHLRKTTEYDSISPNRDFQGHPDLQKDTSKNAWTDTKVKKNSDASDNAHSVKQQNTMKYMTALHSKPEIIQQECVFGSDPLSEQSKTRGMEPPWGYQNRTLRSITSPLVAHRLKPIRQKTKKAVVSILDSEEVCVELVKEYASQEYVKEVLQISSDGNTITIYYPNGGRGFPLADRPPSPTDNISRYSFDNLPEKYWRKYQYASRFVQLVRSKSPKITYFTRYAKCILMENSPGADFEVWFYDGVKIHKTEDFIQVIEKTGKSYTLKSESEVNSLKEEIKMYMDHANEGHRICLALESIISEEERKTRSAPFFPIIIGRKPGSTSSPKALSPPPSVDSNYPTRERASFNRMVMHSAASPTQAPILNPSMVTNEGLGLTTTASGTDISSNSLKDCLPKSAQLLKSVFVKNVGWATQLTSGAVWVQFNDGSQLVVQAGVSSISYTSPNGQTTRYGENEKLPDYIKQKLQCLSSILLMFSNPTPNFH

`CN1C(=O)[C@@H](N2CCc3c(nn(Cc4ccccc4)c3C(N)=O)C2=O)COc2cc(Cl)ccc21` [Compound 10, (S)-2-benzyl-6-(8-chloro-5-methyl-4-oxo-2,3,4,5-tetrahydrobenzo[b][1,4]oxazepin-3-yl)-7-oxo-4,5,6,7-tetrahydro-2H-pyrazolo[3,4-c]pyridine-3-carboxamide] was tested, and the remaining activity at 0.1 µM [1] was 58%, the remaining activity at 0.1 µM [2] was 100% and the remaining activity at 0.1 µM [3] was 87%. The remaining activity at 1 µM [4] was 100%, the remaining activity at 0.1 µM [5] was 88% and the remaining activity at 0.1 µM [6] was 100%. The remaining activity at 0.1 µM [7] was 100%, the remaining activity at 0.1 µM [8] was 99% and the remaining activity at 0.1 µM [9] was 69%. For the same molecule, the remaining activity at 0.1 µM [10] was 100%, the remaining activity at 1 µM [11] was 100% and the remaining activity at 0.1 µM [12] was 58%. For the same molecule, the remaining activity at 0.1 µM [13] was 62%, the remaining activity at 0.1 µM [14] was 83% and the remaining activity at 0.1 µM [15] was 68%. It also gave a remaining activity at 0.1 µM [16] of 95%, a remaining activity at 0.1 µM [17] of 71% and a remaining activity at 0.1 µM [18] of 76%. The remaining activity at 0.1 µM [19] was 100%, the remaining activity at 0.1 µM [20] was 100% and the remaining activity at 0.1 µM [21] was 100%. It also gave a remaining activity at 0.1 µM [22] of 85%, a remaining activity at 0.1 µM [23] of 88% and a remaining activity at 1 µM [24] of 100%. The remaining activity at 0.1 µM [25] was 71%, the remaining activity at 1 µM [26] was 100% and the remaining activity at 0.1 µM [27] was 68%. For the same molecule, the remaining activity at 1 µM [28] was 100%, the remaining activity at 0.1 µM [29] was 89% and the remaining activity at 1 µM [30] was 100%.
